The values that follow come from US20030158254A1, “Engineering absorption of therapeutic compounds via colonic transporters” (XenoPort, Inc., priority 2002, published 2003).

Series [1] has as its target T1, hSMVT (Homo sapiens, UniProt Q9Y289).
T1 sequence (Q9Y289 1-635): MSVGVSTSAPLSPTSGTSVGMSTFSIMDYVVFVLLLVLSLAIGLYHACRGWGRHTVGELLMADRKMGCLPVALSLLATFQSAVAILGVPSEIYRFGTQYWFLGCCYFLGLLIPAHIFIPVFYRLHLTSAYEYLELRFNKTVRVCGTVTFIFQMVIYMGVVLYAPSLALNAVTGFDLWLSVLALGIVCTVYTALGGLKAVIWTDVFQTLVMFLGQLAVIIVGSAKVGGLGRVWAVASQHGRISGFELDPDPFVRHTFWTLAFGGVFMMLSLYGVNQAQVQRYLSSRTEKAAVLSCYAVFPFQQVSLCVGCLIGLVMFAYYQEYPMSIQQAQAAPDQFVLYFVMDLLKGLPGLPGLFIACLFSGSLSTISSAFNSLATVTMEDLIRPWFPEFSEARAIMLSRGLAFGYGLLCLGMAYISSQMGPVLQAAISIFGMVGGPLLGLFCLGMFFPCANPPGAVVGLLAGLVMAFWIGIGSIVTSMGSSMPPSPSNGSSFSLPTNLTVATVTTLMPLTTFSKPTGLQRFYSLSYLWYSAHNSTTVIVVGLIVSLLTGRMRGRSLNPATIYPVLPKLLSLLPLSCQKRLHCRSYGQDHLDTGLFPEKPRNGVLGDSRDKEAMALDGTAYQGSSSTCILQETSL
As to the kind of experiment: Radiolabeled competition assay in SMVT-expressing CHO cells. It counts as cell-based. Particulars: radiolabeled competition assay in SMVT-expressing CHO cells; read-out: IC50. The text has this: The complete open reading frame of human ATBO+(SLC6A14) and SMVT (SLC5A6) were amplified from human cDNA prepared from liver or intestine mRNA. […] Amplified PCR products were cloned into a modified version of the mammalian expression vector pcDNA3 (termed pMO) that was engineered to contain the 5′ and 3′ untranslated regions from the Xenopus beta-globin gene. All clones were completely sequenced and tested for function by transient transfection in HEK293 cells.
For cell uptake studies, stable CHOK1 clones were seeded into polylysine coated 96-well microtitre plates and grown for 2-3 days. Cells were incubated with experimental solutions (combinations of radiolabeled and unlabeled compounds) for 30 minutes at room temperature, washed four times, and lysed in scintillation solution. Accumulation of radiolabeled molecules was measured in a microtitre scintillation plate reader (Perkin Elmer). Inhibition constants (IC50s) were calculated using curve-fitting software (Prism).

In series [2] the target is T1, hSMVT. As to the kind of experiment: Transport currents in SMVT-expressing Xenopus oocytes, normalized to biotin. It counts as cell-based. Particulars: response relative to biotin, transporter-expressing oocytes, test compound 0.5 mM. An excerpt:
The complete open reading frame of human ATBO+(SLC6A14) and SMVT (SLC5A6) were amplified from human cDNA prepared from liver or intestine mRNA. Gene-specific oligonucleotide primers were designed against Genbank sequences (AF151978 and NM-021095). Amplified PCR products were cloned into a modified version of the mammalian expression vector pcDNA3 (termed pMO) that was engineered to contain the 5′ and 3′ untranslated regions from the Xenopus beta-globin gene. All clones were completely sequenced and tested for function by transient transfection in HEK293 cells.
cRNA for oocyte expression was prepared by linearization of plasmid cDNA and in vitro transcription using T7 polymerase (Epicentre Ampliscribe kit). Xenopus oocytes were prepared and maintained as previously described (Collins et al., PNAS […]:5456-5460 (1997)) and injected with 10-30 ng RNA. Transport currents were measured 2-6 days later using two-electrode voltage-clamp (Axon Instruments). All experiments were performed using a modified oocyte Ringers solution (90 mM NaCl, 2 mM KCl, 1.8 mM CaCl2, 1 mM MgCl2, and 10 mM Na HEPES, pH 7.4; in Na^+-free solutions 90 mM choline chloride was substituted for NaCl). The membrane potential of oocytes was held at −60 mV and current traces acquired using PowerLab software (AD Instruments). Full 7-concentration dose-responses were performed for each compound. […] Half-maximal concentrations were calculated using non-linear regression curve fitting software (Prism) with the Hill co-efficient fixed to 1. To ensure that currents were specific for the over-expressed transporter, all compounds were tested against uninjected oocytes. Since both ATBO+ and SMVT require Na^+ for transport, we confirmed transport specificity by application of the compounds in a Na^+-free solution.
In vitro transport data for selected compounds on hSMVT-expressing cells

The subject of the next series is Caco-2 cells. As to the kind of experiment: Caco-2 transport with and without PEPT1/PEPT2 inhibitor Lys(ε-Dansyl)-Leu. Particulars: apical to basolateral, 600 μM Lys(ε-Dansyl)-Leu, FIG. 2. It counts as cell-based, human. An excerpt: Caco-2 cells are derived from the human colon and naturally express a number of colon-expressed transporters. The cells can be used to screen agents or conjugates for capacity to be transported by a colon expressed transporter. By screening agents or conjugates in the presence and absence of the specific PEPT1 and PEPT2 inhibitor Lys(ε-Dansyl)-Leu, one can determine whether PEPT1 and/or PEPT2 is a transporter mediating transport of the agent or conjugate. The role of PEPT1 and/or PEPT2 is shown by a decrease in transport in the presence of Lys(ε-Dansyl)-Leu.
1. Caco-2 cells are plated in either a 12 or 24 well Transwell plate and allowed to differentiate for 19-30 days prior to screening. Day 21 cells are optimal.
2. Dilutions of test compounds with or without Lys(ε-Dansyl)-Leu are prepared in assay buffer. pH 6.0
a. Concentrations of compounds are generally 1 mM with or without 600 μM Lys(Dansyl)-leucine.
b. 20 μM Propidium Iodide added as marker.
3. Spent media is aspirated from apical and basolateral chambers. To the apical chambers, 500 μL of test compound with or without Lys(ε-Dansyl)-Leu is added (125 μL for 24 well Transwell plates).
4. In the basolateral chambers, HBSS buffer pH 7.4 is added (1.5 mL for 12 well format, 875 μL for 24 well format).
5. At each timepoint, 50 μL is sampled from basolateral chambers and transferred to a LC/MS plate (Nunc, PP round bottom).
6. […]
For orientation: Passage across Caco-2 layers is used to estimate intestinal permeability.

Consider `CC(C)(N)C(=O)NCC1(CC(=O)O)CCCCC1` [Compound V, a-aminoisobutyryl gabapentin], for which, at hSMVT [1], the IC50 (in general, the point on the concentration scale where inhibition reaches its midpoint) is 320 µM. In addition, the “% Max. (Biotin)” value at hSMVT [2] turned out to be 36%. In addition, in the series on Caco-2 cells, the “Transport across Caco-2 cells in presence and absence of Lys(ε-Dansyl)-Leu” value is “inhibited by Lys(ε-Dansyl)-Leu”.
